Results reported in ChEMBL document CHEMBL1156420, “In vitro efficacy, resistance selection, and structural modeling studies implicate the malarial parasite apicoplast as the target of azithromycin” (J Biol Chem, 2007).

Legend:
Type in all cases: functional, organism-based
Plasmodium falciparum [1] = assay: Antimalarial activity after 96 hrs against Plasmodium falciparum GCO3 SND mutant CRT/MDR1 by [3H]hypoxanthine uptake
Plasmodium falciparum [2] = assay: Antimalarial activity after 96 hrs against Plasmodium falciparum 7G8 T76K1 mutant CRT/MDR1 by [3H]hypoxanthine uptake; settings: 7G8, MDR1
Plasmodium falciparum [3] = assay: Antimalarial activity after 96 hrs against Plasmodium falciparum Dd2 C1 mutant CRT/MDR1 by [3H]hypoxanthine uptake
Plasmodium falciparum [4] = assay: Antimalarial activity after 96 hrs against Plasmodium falciparum 3BA6 CDY mutant CRT/MDR1 by [3H]hypoxanthine uptake; settings: 3BA6, MDR1
Plasmodium falciparum [5] = assay: Antimalarial activity after 48 hrs against Plasmodium falciparum 7G8 by [3H]hypoxanthine uptake
Plasmodium falciparum [6] = assay: Antimalarial activity after 96 hrs against Plasmodium falciparum Dd2 T76K1 mutant CRT/MDR1 by [3H]hypoxanthine uptake
Plasmodium falciparum [7] = assay: Antimalarial activity after 96 hrs against Plasmodium falciparum 7G8 C1 mutant CRT/MDR1 by [3H]hypoxanthine uptake; settings: 7G8, MDR1
Plasmodium falciparum [8] = assay: Antimalarial activity after 96 hrs against azithromycin-resistant Plasmodium falciparum Dd2 by [3H]hypoxanthine uptake
Plasmodium falciparum [9] = assay: Antimalarial activity against Plasmodium falciparum 3BA6 SDD with CRT and MDR1 mutation after 96 hrs in [3H]hypoxanthine uptake; settings: 3BA6, MDR1
Plasmodium falciparum [10] = assay: Antimalarial activity after 96 hrs against Plasmodium falciparum GCO3 CDY mutant CRT/MDR1 by [3H]hypoxanthine uptake
Plasmodium falciparum [11] = assay: Antimalarial activity after 96 hrs against Plasmodium falciparum GCO3 SDD mutant CRT/MDR1 by [3H]hypoxanthine uptake
Plasmodium falciparum [12] = assay: Antimalarial activity after 96 hrs against Plasmodium falciparum Dd2 by [3H]hypoxanthine uptake
Plasmodium falciparum [13] = assay: Antimalarial activity after 96hrs against Plasmodium falciparum 7G8 by [3H]hypoxanthine uptake
Plasmodium falciparum [14] = assay: Antimalarial activity after 96 hrs against Plasmodium falciparum GCO3 C4 mutant CRT/MDR1 by [3H]hypoxanthine uptake
Plasmodium falciparum [15] = assay: Antimalarial activity after 96 hrs against Plasmodium falciparum 3BA6 by [3H]hypoxanthine uptake
Plasmodium falciparum [16] = assay: Antimalarial activity after 96 hrs against Plasmodium falciparum 3BA6 SND mutant CRT/MDR1 by [3H]hypoxanthine uptake; settings: 3BA6, MDR1
Plasmodium falciparum [17] = assay: Antimalarial activity after 48 hrs against Plasmodium falciparum GCO3 by [3H]hypoxanthine uptake
Plasmodium falciparum [18] = assay: Antimalarial activity after 96hrs against Plasmodium falciparum GCO3 C2 mutant CRT/MDR1 by [3H]hypoxanthine uptake
Plasmodium falciparum [19] = assay: Antimalarial activity after 96 hrs against Plasmodium falciparum GCO3 C6 mutant CRT/MDR1 by [3H]hypoxanthine uptake
Plasmodium falciparum [20] = assay: Antimalarial activity after 96 hrs against Plasmodium falciparum GCO3 by [3H]hypoxanthine uptake
Plasmodium falciparum [21] = assay: Antimalarial activity after 96 hrs against azithromycin-resistant Plasmodium falciparum 7G8 by [3H]hypoxanthine uptake
Plasmodium falciparum [22] = assay: Antimalarial activity after 48 hrs against Plasmodium falciparum Dd2 by [3H]hypoxanthine uptake

CC[C@H]1OC(=O)[C@H](C)[C@@H](O[C@H]2C[C@@](C)(OC)[C@@H](O)[C@H](C)O2)[C@H](C)[C@@H](O[C@@H]2O[C@H](C)C[C@H](N(C)C)[C@H]2O)[C@](C)(O)C[C@@H](C)CN(C)[C@H](C)[C@@H](O)[C@]1(C)O [AZITHROMYCIN]
IC50 (Plasmodium falciparum [1]): 47.8 nM | IC50 (Plasmodium falciparum [2]): 115 nM | IC50 (Plasmodium falciparum [3]): 95.7 nM | IC50 (Plasmodium falciparum [4]): 194 nM | IC50 (Plasmodium falciparum [5]): 15700 nM | IC50 (Plasmodium falciparum [6]): 122 nM | IC50 (Plasmodium falciparum [7]): 142 nM | IC50 (Plasmodium falciparum [8]): 1940 nM | IC50 (Plasmodium falciparum [9]): 155 nM | IC50 (Plasmodium falciparum [10]): 70.2 nM | IC50 (Plasmodium falciparum [11]): 63.3 nM | IC50 (Plasmodium falciparum [12]): 103 nM | IC50 (Plasmodium falciparum [13]): 228 nM | IC50 (Plasmodium falciparum [14]): 66.7 nM | IC50 (Plasmodium falciparum [15]): 180 nM | IC50 (Plasmodium falciparum [16]): 158 nM | IC50 (Plasmodium falciparum [17]): 22600 nM | IC50 (Plasmodium falciparum [18]): 48 nM | IC50 (Plasmodium falciparum [19]): 76.7 nM | IC50 (Plasmodium falciparum [20]): 43.3 nM | IC50 (Plasmodium falciparum [21]): 3970 nM | IC50 (Plasmodium falciparum [22]): 3.46 µM

C[C@H]1c2cccc(O)c2C(=O)C2=C(O)[C@]3(O)C(=O)C(C(N)=O)=C(O)[C@@H](N(C)C)[C@@H]3[C@@H](O)[C@@H]21 [DOXYCYCLINE]
IC50 (Plasmodium falciparum [8]): 302 nM | IC50 (Plasmodium falciparum [12]): 432 nM | IC50 (Plasmodium falciparum [13]): 1440 nM | IC50 (Plasmodium falciparum [21]): 603 nM

CC[C@H]1OC(=O)[C@H](C)[C@@H](O[C@H]2C[C@@](C)(OC)[C@@H](O)[C@H](C)O2)[C@H](C)[C@@H](O[C@@H]2O[C@H](C)C[C@H](N(C)C)[C@H]2O)[C@](C)(O)C[C@@H](C)C(=O)[C@H](C)[C@@H](O)[C@]1(C)O [ERYTHROMYCIN]
IC50 (Plasmodium falciparum [8]): 20300 nM | IC50 (Plasmodium falciparum [12]): 9400 nM | IC50 (Plasmodium falciparum [13]): 34700 nM | IC50 (Plasmodium falciparum [21]): 39500 nM

CN(C)[C@@H]1C(O)=C(C(N)=O)C(=O)[C@@]2(O)C(O)=C3C(=O)c4c(O)cccc4[C@@](C)(O)[C@H]3C[C@@H]12 [TETRACYCLINE]
IC50 (Plasmodium falciparum [8]): 324 nM | IC50 (Plasmodium falciparum [12]): 397 nM | IC50 (Plasmodium falciparum [13]): 697 nM | IC50 (Plasmodium falciparum [21]): 365 nM

C=C(NC(=O)C(=C)NC(=O)c1csc(C2=N[C@@H]3c4csc(n4)[C@H]4NC(=O)c5csc(n5)[C@H]([C@](C)(O)[C@@H](C)O)NC(=O)[C@H]5CSC(=N5)/C(=C/C)NC(=O)[C@H]([C@@H](C)O)NC(=O)c5csc(n5)[C@]3(CC2)NC(=O)[C@H](C)NC(=O)C(=C)NC(=O)[C@H](C)NC(=O)[C@H]([C@@H](C)CC)N[C@@H]2C=Cc3c([C@H](C)O)cc(nc3[C@H]2O)C(=O)O[C@@H]4C)n1)C(N)=O [THIOSTREPTON]
IC50 (Plasmodium falciparum [5]): 688 nM | IC50 (Plasmodium falciparum [8]): 175 nM | IC50 (Plasmodium falciparum [12]): 292 nM | IC50 (Plasmodium falciparum [13]): 555 nM | IC50 (Plasmodium falciparum [17]): 2280 nM | IC50 (Plasmodium falciparum [20]): 916 nM | IC50 (Plasmodium falciparum [21]): 217 nM | IC50 (Plasmodium falciparum [22]): 2.11 µM

Oc1cc(Cl)ccc1Oc1ccc(Cl)cc1Cl [TRICLOSAN]
IC50 (Plasmodium falciparum [5]): 774 nM | IC50 (Plasmodium falciparum [12]): 4190 nM | IC50 (Plasmodium falciparum [13]): 424 nM | IC50 (Plasmodium falciparum [17]): 2710 nM | IC50 (Plasmodium falciparum [20]): 1530 nM | IC50 (Plasmodium falciparum [22]): 6.26 µM
